Values quoted from earlier work, collected in patent publication US5965160A, “Self-emulsifiable formulation producing an oil-in-water emulsion” (priority 1998, dated 1999).

Settings: sealed entero-coated hard gelatine capsule; Barnwell et al, 1992

CC(C)NCC(O)COc1cccc2ccccc12 (stereo not shown) [propranolol]
oral bioavailability (in words): can be improved by dissolving the drug in a lipid formulation containing mainly oleic acid
